Test results published in patent publication US20210391038A1, “SPECIFICALLY-SHAPED CRYSTAL OF COMPOUND AND METHOD FOR PRODUCING SAME” (TOWA PHARMACEUTICAL CO., LTD., priority 2018, published 2021).
Counter-ions that a name gives are not always drawn.

Assay: Measurement of critical degree of supersaturation of spherulite
Assay type: physicochemical
Description: “Supersaturated solution” in the present description means a solution in a state of containing a solute exceeding the solubility. As the degree of supersaturation, “degree of supersaturation” can be used. Regarding the degree of supersaturation, when the concentration (mass concentration (g/g)) of a compound dissolved in a supersaturated solution is defined as C and the solubility of the compound is defined as Cs, the degree of supersaturation S can be represented by the following formula: […]
“Critical degree of supersaturation” in the present description means the lowest degree of supersaturation required to obtain a specifically-shaped crystal. […] The value of a critical degree of supersaturation varies depending on the shape of a crystal. For example, all of values of a critical degree of supersaturation required to obtain a plate crystal, a critical degree of supersaturation required to obtain a needle crystal, and a critical degree of supersaturation required to obtain a spherulite are different. The critical degree of supersaturation required to obtain a spherulite is higher than the critical degree of supersaturation required to obtain a plate crystal or a needle crystal.
The actual measured value of the critical degree of supersaturation (S*) can be measured as follows:
(1) 100 particles are observed by SEM. (2) 5 to 10 particles whose shape is close to a desired specific shape are selected, and the shape is evaluated. In particular, when the desired specific shape is a sphere, the sphericity is evaluated. (3) Based on the evaluation index of the shape, whether the selected particles have the desired specific shape or not is determined. In particular, when the desired specific shape is a sphere, the case where the sphericity is 0.60 or more is determined as a spherulite. (4) The above-mentioned operation is performed for each sample having a different degree of supersaturation during crystallization, and the minimum value of a degree of supersaturation having the specifically-shaped particles is determined as the critical degree of supersaturation. The difference between the maximum value of a degree of supersaturation not having the specifically-shaped particles and the critical degree of supersaturation should be 20% or less.
The critical degree of supersaturation of a spherulite of ketotifen fumarate was determined as follows. To 2.0 g of ketotifen fumarate, 10 mL (5 v/w) of methanol was added, followed by reflux to completely dissolve. This solution was added dropwise to 50 mL of isopropanol at 20° C. to prepare a supersaturated solution of ketotifen fumarate. The degree of supersaturation of the supersaturated solution at the end of dropwise addition was 9.0. The supersaturated solution was crystallized. The crystal was collected by filtration, followed by drying under reduced pressure at 40° C., thus obtaining a crystal of ketotifen fumarate.
Similarly, when a substrate and a solvent different from those mentioned above are used, a plurality of samples having a different degree of supersaturation are prepared and crystallized, and then the critical degree of supersaturation of the spherulite was measured.

For `Cn1c(=O)c2[nH]cnc2n(C)c1=O.[Mg]` [Theophylline magnesium salt], the “actual measured value of the critical degree of supersaturation” value (“actual measured value” below) was 3.5, the “Critical degree of supersaturation S Experimental value” (entry 28, solvent 1 MeOH, solvent 2 H2O, solvent 2/solvent 1 ratio 3, crystallization 0 °C) was 3.5 and the “Critical degree of supersaturation S Experimental value” (entry 29, solvent 1 EtOH, solvent 2 H2O, solvent 2/solvent 1 ratio 3, crystallization 0 °C) was 3.9. The “Critical degree of supersaturation S Experimental value” (entry 30, solvent 1 Acetone, solvent 2 H2O, solvent 2/solvent 1 ratio 3, crystallization 0 °C) was 6.3 and the “Critical degree of supersaturation S Experimental value” (entry 31, solvent 1 IPA, solvent 2 H2O, solvent 2/solvent 1 ratio 3, crystallization 0 °C) was 6.6.
In the case of `COc1cccc(C2(O)CCCCC2CN(C)C)c1` (stereo not shown) [Tramadol hydrochloride], the “actual measured value” value is reported as 4.2, the “Critical degree of supersaturation S Experimental value” (entry 36, solvent 1 MeOH, solvent 2 i-PrOAc, solvent 2/solvent 1 ratio 20, crystallization 10 °C) is reported as 4.7 and the “Critical degree of supersaturation S Experimental value” (entry 37, solvent 1 IPA, solvent 2 TBME, solvent 2/solvent 1 ratio 30, crystallization 10 °C) is reported as 11.1. The “Critical degree of supersaturation S Experimental value” (entry 38, solvent 1 EtOH, solvent 2 TBME, solvent 2/solvent 1 ratio 30, crystallization 10 °C) was 22.4.
With `Cc1cc(N2CCN([C@@H]3CN[C@H](C(=O)N4CCSC4)C3)CC2)n(-c2ccccc2)n1` [Teneligliptin hydrobromide hydrate] the “actual measured value” value was 7.9, the “Critical degree of supersaturation S Experimental value” (entry 32, solvent 1 MeOH, solvent 2 1-BuOH, solvent 2/solvent 1 ratio 10, crystallization 0 °C) was 5.2 and the “Critical degree of supersaturation S Experimental value” (entry 33, solvent 1 MeOH, solvent 2 1-BuOH, solvent 2/solvent 1 ratio 10, crystallization 20 °C) was 7.9. The “Critical degree of supersaturation S Experimental value” (entry 34, solvent 1 MeOH, solvent 2 1-BuOH, solvent 2/solvent 1 ratio 10, crystallization 40 °C) was 12.6.
In the case of `Cc1ccccc1C(=O)Nc1ccc(C(=O)N2CCCC(O)c3cc(Cl)ccc32)c(C)c1` (stereo not shown) [Tolvaptan], the “actual measured value” value is reported as 4.8, the “Critical degree of supersaturation S Experimental value” (entry 54, solvent 1 MeOH, solvent 2 H2O, solvent 2/solvent 1 ratio 0.4, crystallization 0 °C) is reported as 4.8 and the “Critical degree of supersaturation S Experimental value” (entry 55, solvent 1 MeOH, solvent 2 H2O, solvent 2/solvent 1 ratio 0.4, crystallization 10 °C) is reported as 7.1.
With `CN1CCC(=C2c3ccccc3CC(=O)c3sccc32)CC1` [Ketotifen fumarate] the “Critical degree of supersaturation S Experimental value” (entry 4, solvent 1 MeOH, solvent 2 IPA, solvent 2/solvent 1 ratio 5, crystallization 0 °C) was 2.5, the “Critical degree of supersaturation S Experimental value” (entry 5, solvent 1 MeOH, solvent 2 IPA, solvent 2/solvent 1 ratio 5, crystallization 50 °C) was 4 and the “Critical degree of supersaturation S Experimental value” (entry 6, solvent 1 MeOH, solvent 2 2-BuOH, solvent 2/solvent 1 ratio 5, crystallization 0 °C) was 1.6. The “Critical degree of supersaturation S Experimental value” (entry 7, solvent 1 MeOH, solvent 2 2-BuOH, solvent 2/solvent 1 ratio 5, crystallization 20 °C) was 4.4 and the “critical degree of supersaturation of a spherulite” value (methanol to isopropanol 1:5, temperature during crystallization 20° C.) was 4.0.
In the case of `CN(C)CCC[C@@]1(c2ccc(F)cc2)OCc2cc(C#N)ccc21` [Escitalopram oxalate], the “actual measured value” value is reported as 3.7, the “Critical degree of supersaturation S Experimental value” (entry 21, solvent 1 H2O, solvent 2 2-BuOH, solvent 2/solvent 1 ratio 30, crystallization 0 °C) is reported as 2.8 and the “Critical degree of supersaturation S Experimental value” (entry 22, solvent 1 H2O, solvent 2 2-BuOH, solvent 2/solvent 1 ratio 15, crystallization 0 °C) is reported as 3.7. For the same compound, the “Critical degree of supersaturation S Experimental value” (entry 23, solvent 1 H2O, solvent 2 IPA, solvent 2/solvent 1 ratio 15, crystallization 0 °C) was 4.
With `CN(C)CC/C=C1/c2ccccc2COc2ccc(CC(=O)O)cc21` [Olopatadine] the “actual measured value” value was 9.7 and the “Critical degree of supersaturation S Experimental value” (entry 58, solvent 1 MeOH, solvent 2 EtOAc, solvent 2/solvent 1 ratio 20, crystallization 15 °C) was 9.7.
For `Nc1nc(CC(=O)Nc2ccc(CCNC[C@H](O)c3ccccc3)cc2)cs1` [Mirabegron], the “actual measured value” value was 5.6, the “Critical degree of supersaturation S Experimental value” (entry 48, solvent 1 H2O, solvent 2 MeOH, solvent 2/solvent 1 ratio 1.25, crystallization 0 °C) was 1.6 and the “Critical degree of supersaturation S Experimental value” (entry 49, solvent 1 H2O, solvent 2 MeOH, solvent 2/solvent 1 ratio 1.25, crystallization 10 °C) was 3.2. For the same compound, the “Critical degree of supersaturation S Experimental value” (entry 50, solvent 1 MeOH, solvent 2 TBME, solvent 2/solvent 1 ratio 10, crystallization 0 °C) was 4, the “Critical degree of supersaturation S Experimental value” (entry 51, solvent 1 MeOH, solvent 2 TBME, solvent 2/solvent 1 ratio 10, crystallization 10 °C) was 4.3 and the “Critical degree of supersaturation S Experimental value” (entry 52, solvent 1 EtOH, solvent 2 TBME, solvent 2/solvent 1 ratio 10, crystallization 0 °C) was 5.6. For the same compound, the “Critical degree of supersaturation S Experimental value” (entry 53, solvent 1 EtOH, solvent 2 TBME, solvent 2/solvent 1 ratio 10, crystallization 10 °C) was 5.4.
For `Cc1cccc(C)c1NC(=O)CC12CCCN1CCC2.Cl` [Pilsicainide hydrochloride anhydride], the “actual measured value” value was 27 and the “Critical degree of supersaturation S Experimental value” (entry 35, solvent 1 IPA, solvent 2 Toluene, solvent 2/solvent 1 ratio 10, crystallization 5 °C) was 27.
In the case of `CC(C)[C@H](N)C(=O)OCCOCn1cnc2c(=O)[nH]c(N)nc21` [Valacyclovir hydrochloride], the “Critical degree of supersaturation S Experimental value” (entry 56, solvent 1 H2O, solvent 2 2-BuOH, solvent 2/solvent 1 ratio 35, crystallization 10 °C) is reported as 48.6.
With `COc1ccc2[n-]c([S+]([O-])Cc3ncc(C)c(OC)c3C)nc2c1.COc1ccc2[n-]c([S+]([O-])Cc3ncc(C)c(OC)c3C)nc2c1.[Mg+2]` (stereo not shown) [Esomeprazolc magnesium hydrate] the “Critical degree of supersaturation S Experimental value” (entry 1, solvent 1 MeOH, solvent 2 H2O, solvent 2/solvent 1 ratio 1, crystallization 35 °C) was 1.4.
In the case of `O=C(O)CCCN1CCC(O[C@@H](c2ccc(Cl)cc2)c2ccccn2)CC1.O=S(=O)(O)c1ccccc1` [Bepotastine besilate], the “actual measured value” value is reported as 36.4 and the “Critical degree of supersaturation S Experimental value” (entry 57, solvent 1 EtOH, solvent 2 AcOiPr, solvent 2/solvent 1 ratio 10, crystallization 0 °C) is reported as 36.4.
In the case of `CC[C@H]1OC(=O)[C@H](C)[C@@H](O[C@H]2C[C@@](C)(OC)[C@@H](O)[C@H](C)O2)[C@H](C)[C@@H](O[C@@H]2O[C@H](C)C[C@H](N(C)C)[C@H]2O)[C@](C)(O)C[C@@H](C)CN(C)[C@H](C)[C@@H](O)[C@]1(C)O` [Azithromycin monohydrate], the “Critical degree of supersaturation S Experimental value” (entry 11, solvent 1 IPA, solvent 2 H2O, solvent 2/solvent 1 ratio 10, crystallization 0 °C) is reported as 3.2, the “Critical degree of supersaturation S Experimental value” (entry 14, solvent 1 IPA, solvent 2 H2O, solvent 2/solvent 1 ratio 20, crystallization 0 °C) is reported as 1.6 and the “Critical degree of supersaturation S Experimental value” (entry 15, solvent 1 Acetone, solvent 2 H2O, solvent 2/solvent 1 ratio 10, crystallization 0 °C) is reported as 6.2. The “Critical degree of supersaturation S Experimental value” (entry 16, solvent 1 EtOH, solvent 2 H2O, solvent 2/solvent 1 ratio 20, crystallization 0 °C) was 7.1, the “Critical degree of supersaturation S Experimental value” (entry 17, solvent 1 MeOH, solvent 2 H2O, solvent 2/solvent 1 ratio 20, crystallization 0 °C) was 7.5 and the “Critical degree of supersaturation S Experimental value” (entry 18, solvent 1 IPA, solvent 2 H2O, solvent 2/solvent 1 ratio 10, crystallization 20 °C) was 11.1.
For `CCCCCCOC(=O)N=C(N)c1ccc(NCc2nc3cc(C(=O)N(CCC(=O)OCC)c4ccccn4)ccc3n2C)cc1` [Dabigatran etexilate methanesulfonate], the “actual measured value” value was 4.3, the “Critical degree of supersaturation S Experimental value” (entry 24, solvent 1 MeOH, solvent 2 TBME, solvent 2/solvent 1 ratio 10, crystallization 20 °C) was 3.3 and the “Critical degree of supersaturation S Experimental value” (entry 25, solvent 1 EtOH, solvent 2 EtOAc, solvent 2/solvent 1 ratio 10, crystallization 5 °C) was 2.9. The “Critical degree of supersaturation S Experimental value” (entry 26, solvent 1 EtOH, solvent 2 EtOAe, solvent 2/solvent 1 ratio 10, crystallization 20 °C) was 4.3 and the “Critical degree of supersaturation S Experimental value” (entry 27, solvent 1 EtOH, solvent 2 EtOAc, solvent 2/solvent 1 ratio 10, crystallization 35 °C) was 5.2.
For `N#C[C@@H]1CCCN1C(=O)CNC12CC3CC(CC(O)(C3)C1)C2` [Vildagliptin], the “actual measured value” value was 9.2, the “Critical degree of supersaturation S Experimental value” (entry 39, solvent 1 EtOH, solvent 2 TBME, solvent 2/solvent 1 ratio 10, crystallization 0 °C) was 9.2 and the “Critical degree of supersaturation S Experimental value” (entry 40, solvent 1 EtOH, solvent 2 TBME, solvent 2/solvent 1 ratio 10, crystallization 10 °C) was 7. For the same compound, the “Critical degree of supersaturation S Experimental value” (entry 41, solvent 1 MEK, solvent 2 Toluene, solvent 2/solvent 1 ratio 10, crystallization 0 °C) was 8.5, the “Critical degree of supersaturation S Experimental value” (entry 42, solvent 1 IPA, solvent 2 TBME, solvent 2/solvent 1 ratio 10, crystallization 0 °C) was 11 and the “Critical degree of supersaturation S Experimental value” (entry 43, solvent 1 IPA, solvent 2 TBME, solvent 2/solvent 1 ratio 10, crystallization 10 °C) was 11.6. The “Critical degree of supersaturation S Experimental value” (entry 44, solvent 1 IPA, solvent 2 TBME, solvent 2/solvent 1 ratio 10, crystallization 20 °C) was 11.9.
